Read-outs that look alike come from different tables or passages of the source.

The experiment concerns the target T1, SIRT1 (Homo sapiens, UniProt Q96EB6).
T1 sequence (Q96EB6 1-747): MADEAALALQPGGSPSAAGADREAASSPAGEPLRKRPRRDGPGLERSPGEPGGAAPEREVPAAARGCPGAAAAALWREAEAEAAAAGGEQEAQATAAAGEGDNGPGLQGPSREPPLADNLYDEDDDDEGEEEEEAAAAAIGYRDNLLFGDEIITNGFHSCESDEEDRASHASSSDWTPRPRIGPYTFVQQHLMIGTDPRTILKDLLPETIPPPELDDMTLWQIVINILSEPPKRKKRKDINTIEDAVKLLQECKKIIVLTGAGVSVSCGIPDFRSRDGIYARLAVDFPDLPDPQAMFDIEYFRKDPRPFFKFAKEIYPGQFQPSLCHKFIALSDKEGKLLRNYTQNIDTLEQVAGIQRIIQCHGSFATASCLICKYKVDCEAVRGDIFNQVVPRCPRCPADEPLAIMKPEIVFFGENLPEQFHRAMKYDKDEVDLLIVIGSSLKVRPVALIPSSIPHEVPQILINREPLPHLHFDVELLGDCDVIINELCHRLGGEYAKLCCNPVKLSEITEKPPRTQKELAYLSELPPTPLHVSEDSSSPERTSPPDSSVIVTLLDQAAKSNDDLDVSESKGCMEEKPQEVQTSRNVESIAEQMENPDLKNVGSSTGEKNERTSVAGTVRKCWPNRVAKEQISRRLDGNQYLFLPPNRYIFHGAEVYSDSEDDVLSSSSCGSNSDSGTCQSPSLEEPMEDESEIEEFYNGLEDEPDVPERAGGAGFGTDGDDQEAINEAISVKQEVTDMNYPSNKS
Put plainly: Mass spectrometry based SIRT1 deacetylase activation assay (acetylated p53-derived peptide substrate). Format: biochemical.

Setting [1] is: 0.5 μM peptide substrate, 120 μM βNAD+, 10 nM SIRT1, 25 minutes at 25° C.
[2] abbreviates: 0.5 μM peptide substrate, 120 μM βNAD+, 10 nM SIRT1, 25 min at 25° C.
Setting [3] is: 0.5 μM peptide substrate, 120 μM βNAD+, 10 nM SIRT1, 25 min at 25° C., read-out: EC1.5.

As for `O=C(Nc1cccnc1)c1cc(N2CCOCC2)cc2[nH]c(-c3ccc(F)cc3C(F)F)nc12` [Compound 751], under setting [1], the EC1.5 result is recorded as “A (EC1.5<1.0 uM)” and the “Fold Act. (percent maximum fold activation)” value was “A (Fold activation >200%)”.
As for `O=C(Nc1cccc(CN2CCOCC2)n1)c1cccc2[nH]c(-c3cccc(Cl)c3)nc12` [Compound 853], under setting [1], the EC1.5 entry is recorded as “A (EC1.5<1.0 uM)” and the “Fold Act. (percent maximum fold activation)” value is “A (Fold activation >200%)”.
On to `Cc1cc(NC(=O)c2cccc3[nH]c(-c4ccccc4C(F)(F)F)nc23)no1` [Compound 481], for which the “Fold Act. (percent maximum fold activation)” value under setting [2] is “A (Fold activation >200%)”. The EC1.5 under setting [3] was less than 1000 nM.
Take `O=C(Nc1cccnn1)c1cccc2[nH]c(-c3ccc(F)cc3C(F)(F)F)nc12` [Compound 465]: the “Fold Act. (percent maximum fold activation)” value under setting [2] was “A (Fold activation >200%)”. Also, under setting [3], the EC1.5 was less than 1000 nM.
`O=C(Nc1ccccn1)c1cccc2[nH]c(-c3ccccc3OCCN3CCC(F)(F)CC3)nc12` [Compound 613]: under setting [1], the EC1.5 result is listed as “B (EC1.5 1-25 uM)” and the “Fold Act. (percent maximum fold activation)” value is recorded as “B (Fold Activation <200%)”.
Take `O=C(Nc1ccccn1)c1cccc2[nH]c(-c3ccc(OCCN4CCOCC4)cc3C(F)F)nc12` [Compound 723, 2-(2-(difluoromethyl)-4-(2-morpholinoethoxy)phenyl)-N-(pyridin-2-yl)-1H-benzo[d]imidazole-7-carboxamide]: under setting [1], the EC1.5 result is given as “A (EC1.5<1.0 uM)” and the “Fold Act. (percent maximum fold activation)” value is “A (Fold activation >200%)”.
`O=C(Nc1ccccn1)c1cccc2[nH]c(-c3cc(N4CC[C@@H](F)C4)ccc3C(F)(F)F)nc12` [Compound 668]: under setting [1], the EC1.5 entry is “A (EC1.5<1.0 uM)” and the “Fold Act. (percent maximum fold activation)” value is recorded as “B (Fold Activation <200%)”.
With `O=C(Nc1cccnn1)c1cccc2[nH]c(-c3cc(F)ccc3C(F)(F)F)nc12` [Compound 456], under setting [2], the “Fold Act. (percent maximum fold activation)” value is “A (Fold activation >200%)”. Also, under setting [3], the EC1.5 is less than 1000 nM.
Taken in the same sequence, the figures for `O=C(Nc1ccc(CN2CCCC2)cn1)c1cccc2[nH]c(-c3ccc(Cl)cc3C(F)(F)F)nc12` [Compound 542] were “A (Fold activation >200%)” and less than 1000 nM.
As to `O=C(Nc1ccccn1)c1cncc2[nH]c(-c3ccc(OC[C@H](O)CO)cc3C(F)(F)F)nc12` [Compound 763], under setting [1], the EC1.5 result is given as “A (EC1.5<1.0 uM)” and the “Fold Act. (percent maximum fold activation)” value was “A (Fold activation >200%)”.
In the case of `CC(C)N1CCN(CCOc2ccccc2-c2nc3c(C(=O)Nc4nccs4)cccc3[nH]2)CC1` [Compound 485], the “Fold Act. (percent maximum fold activation)” value under setting [2] is “A (Fold activation >200%)”. Further, the EC1.5 under setting [3] was 1000 to 25000 nM.
On to `O=C(Nc1nccs1)c1cncc2[nH]c(-c3cc(F)ccc3C(F)(F)F)nc12` [Compound 653], for which, under setting [1], the EC1.5 entry is “B (EC1.5 1-25 uM)” and the “Fold Act. (percent maximum fold activation)” value is “A (Fold activation >200%)”.
Regarding `O=C(Nc1ccccn1)c1cccc2[nH]c(-c3ccccc3C(F)(F)F)nc12` [Compound 248], the EC1.5 entry is on record as “B (EC1.5 1-25 uM)” and the “Fold Act. (percent maximum fold activation)” value is on record as “A (Fold activation >200%)”.
For `O=C(Nc1nccs1)c1cc(N2CCOCC2)cc2[nH]c(-c3ccccc3C(F)F)nc12` [Compound 734], under setting [1], the EC1.5 entry is recorded as “A (EC1.5<1.0 uM)” and the “Fold Act. (percent maximum fold activation)” value is given as “A (Fold activation >200%)”.
For the compound `Cc1cnc(NC(=O)c2cc(F)cc3nc(-c4cc(F)ccc4C(F)F)[nH]c23)s1` [Compound 836], under setting [1], the EC1.5 result was “A (EC1.5<1.0 uM)” and the “Fold Act. (percent maximum fold activation)” value was “A (Fold activation >200%)”.
Take `COc1cc(C(=O)Nc2nccs2)c2nc(-c3ccccc3C(F)(F)F)[nH]c2c1` [Compound 634]: under setting [1], the EC1.5 result was “A (EC1.5<1.0 uM)” and the “Fold Act. (percent maximum fold activation)” value is “A (Fold activation >200%)”.
Consider `Cc1nc(N2CCOCC2)sc1-c1nc2c(C(=O)Nc3nccs3)cccc2[nH]1` [Compound 411], for which, under setting [2], the “Fold Act. (percent maximum fold activation)” value is reported as “A (Fold activation >200%)”. Further, the EC1.5 under setting [3] was less than 1000 nM.
As for `Cc1nc(C)c(-c2nc3c(C(=O)Nc4ccncc4)cccc3[nH]2)s1` [Compound 318], the EC1.5 result was “A (EC1.5<1.0 uM)” and the “Fold Act. (percent maximum fold activation)” value is given as “A (Fold activation >200%)”.
`O=C(Nc1ccc(CN2CCCC2)cc1)c1cccc2[nH]c(-c3cc(CN4CCCC4)ccc3C(F)(F)F)nc12` [Compound 873, 2-(5-(pyrrolidin-1-ylmethyl)-2-(trifluoromethyl)phenyl)-N-(4-(pyrrolidin-1-ylmethyl)phenyl)-1H-benzo[d]imidazole-4-carboxamide]: under setting [1], the EC1.5 result is listed as “A (EC1.5<1.0 uM)” and the “Fold Act. (percent maximum fold activation)” value is listed as “A (Fold activation >200%)”.
Taken in the same sequence, the figures for `Cc1cnc(NC(=O)c2cncc3[nH]c(-c4ccc(OC[C@H](O)CO)cc4C(F)(F)F)nc23)s1` [Compound 762] were “A (EC1.5<1.0 uM)” and “A (Fold activation >200%)”.
For `O=C(Nc1ccccn1)c1cccc2[nH]c(-c3ccccc3OCCN3CCNCC3)nc12` [Compound 484], the “Fold Act. (percent maximum fold activation)” value under setting [2] is recorded as “A (Fold activation >200%)”. Further, the EC1.5 under setting [3] lay in the range of 1000 to 25000 nM.
Take `O=C(Nc1ccccn1)c1cccc2[nH]c(-c3ccc(CN4CCCC4)cc3C(F)(F)F)nc12` [Compound 838, N-(pyridin-2-yl)-2-(4-(pyrrolidin-1-ylmethyl)-2-(trifluoromethyl)phenyl)-1H-benzo[d]imidazole-4-carboxamide]: under setting [1], the EC1.5 result is “A (EC1.5<1.0 uM)” and the “Fold Act. (percent maximum fold activation)” value was “A (Fold activation >200%)”.
Regarding `O=C(Nc1nccs1)c1cncc2[nH]c(-c3ccc(OC[C@@H](O)CO)cc3C(F)(F)F)nc12` [Compound 758], under setting [1], the EC1.5 result was “A (EC1.5<1.0 uM)” and the “Fold Act. (percent maximum fold activation)” value is “A (Fold activation >200%)”.
With `O=C(Nc1ncc(CN2CCOCC2)s1)c1cccc2[nH]c(-c3ccccc3C(F)(F)F)nc12` [Compound 780, N-(5-(morpholinomethyl)thiazol-2-yl)-2-(2-(trifluoromethyl)phenyl)-1H-benzo[d]imidazole-4-carboxamide], under setting [1], the EC1.5 result is reported as “C (EC1.5 >25 uM)” and the “Fold Act. (percent maximum fold activation)” value was “B (Fold Activation <200%)”.
For the compound `O=C(Nc1nccs1)c1cccc2[nH]c(-c3cccnc3)nc12` [Compound 227], the EC1.5 entry was “B (EC1.5 1-25 uM)” and the “Fold Act. (percent maximum fold activation)” value is recorded as “A (Fold activation >200%)”.
`Cc1cc(NC(=O)c2cccc3[nH]c(-c4ccc(Cl)cc4C(F)(F)F)nc23)no1` [Compound 452]: the “Fold Act. (percent maximum fold activation)” value under setting [2] is given as “A (Fold activation >200%)”. The EC1.5 under setting [3] is less than 1000 nM.
`O=C(Nc1cccnc1)c1cccc2[nH]c(-c3ccnc(N4CCCC4)c3)nc12` [Compound 568]: under setting [2], the “Fold Act. (percent maximum fold activation)” value is “B (Fold Activation <200%)”. In addition, under setting [3], the EC1.5 is more than 25000 nM.
Take `Cc1cc(-c2nc3c(C(=O)Nc4nc(CN5CCOCC5)cs4)cccc3[nH]2)ccn1` [Compound 844]: under setting [1], the EC1.5 entry is recorded as “A (EC1.5<1.0 uM)” and the “Fold Act. (percent maximum fold activation)” value is “A (Fold activation >200%)”.
Taken in the same sequence, the figures for `FC(F)(F)c1cc(Cl)ccc1-c1nc2c(NCc3cccnc3)cccc2[nH]1` [Compound 669] were “C (EC1.5 >25 uM)” and “B (Fold Activation <200%)”.
